Data set [1] concerns Multicellular spheroids with hASC and MDA-MB-231. Briefly: Permeability value (PV) in the 3D tumor model. The following applies: PV = EffA:M - 1/2(EffASC + EffMDA), Equation (4).
Protocol: Therefore, we defined the permeability value (PV) of each drug as the difference in efficacy in multicellular and monocellular spheroids, as determined by Equation (4).
After treating the drug with spheroids for 2 days, the efficacy of the drug was evaluated by CellTiter‐Glo® 3D Cell Viability Assay (Promega). […] (4) PV=EffA:M−1/2EffASC+EffMDA.
Data set [2] concerns MDA-MB-231 monocellular spheroids. Briefly: Drug efficacy in MDA-MB-231 monocellular spheroids. Type of data set: cell-based, human. The note with it: drug at IC50 of MDA-MB-231 monolayer cells, 2 days. How it is done: (§1) To form 3D multicellular tumor spheroids, cells was trypsinized and suspended in the growth media. Stromal cells and breast cancer cells were plated with a density of 5 × 10^3 cells /25 μL into 96‐well plate precoated with poly‐HEMA, respectively, resulting in 1 × 10^4 cells exist per each well. After seeding, the plate was centrifuged for 2 min at 1000 rpm to collect the cells in the center of the well. Fifty microliters of 10% Matrigel® Basement Membrane Matrix (Corning, NY, USA) solution diluted in media was gently added into the plate on ice to prevent matrigel from gelation. Monocellular spheroids were generated by a single culture of stromal cells or breast cancer cells. Cells were seeded with a density of 1 × 10^4 cells per well with 50 μL of 10% matrigel on a poly‐HEMA‐coated plate. Then, the plate with cells and matrigel was centrifuged at 1000 rpm for 2 min, and incubated for 48 h at 37°C with 5% CO2.

Data set [3] concerns Multicellular spheroids with hASC and MDA-MB-231. Briefly: Drug efficacy in hASC and MDA-MB-231 multicellular (A:M) spheroids, CellTiter-Glo 3D. Type of data set: cell-based, human. The note with it: drug at IC50 of MDA-MB-231 monolayer cells, 2 days. How it is done: as §1
On the technique in general: Cellular ATP, detected with luciferase, serves as a proxy for viable cell number.

A further data set relates to MDA-MB-231 cells. Briefly: IC50 in MDA-MB-231 monolayer cells. The following applies: MDA-MB-231 monolayer cells, read-out: MDA-MB-231 IC50. Type of data set: cell-based, human.
For data set [4], the system named is hASC monocellular spheroids. Nature of the data set: Drug efficacy in hASC monocellular spheroids. Type of data set: cell-based, human. The following applies: drug at IC50 of MDA-MB-231 monolayer cells, 2 days. The protocol: as §1
The subject of data set [5] is hBMSC-co-cultured spheroids (B:M). Briefly: Drug penetration (intrinsic fluorescence) in hBMSC-co-cultured tumor spheroids. The following applies: 10 μM, 48 h, fluorescence microscopy. Type of data set: cell-based, human. How it is done:
(§2) We next tested whether ECM deposition on the surface of spheroids would affect the penetration of anticancer drugs and their efficacy. Three types of 3D multicellular tumor spheroids were formed and treated with 10 μM doxorubicin, epirubicin, or topotecan, which are chemotherapeutic agents for various tumors, including breast cancer, for an additional 48 h.
as §1
(§3) Spheroids were transferred to an opaque‐walled multiwall plate and analyzed by ATP‐based cell viability assays using Real Time‐Glo™ MT Cell Viability Assay (Promega, Madison, WI, USA) according to the manufacturer's protocol. […] Necrotic cells of spheroids were analyzed in Real Time‐Glo™ Annexin V Necrosis Assay (Promega) following the manufacturer's instructions. Luminescence was measured using a Glomax discovery multi Microplate Reader (Glomax discovery, Promega) with an integration time of 0.25–1.0 s per well.

Data set [6] concerns hDF-co-cultured spheroids (F:M). Nature of the data set: Drug penetration (intrinsic fluorescence) in hDF-co-cultured tumor spheroids. Format: cell-based, human. The note with it: 10 μM, 48 h, fluorescence microscopy. The protocol: as §2, §1, §3
Data set [7] has as its system 3D multicellular tumor spheroids. Briefly: Necrosis in tumor spheroids, Real Time-Glo Annexin V Necrosis Assay. Format: cell-based, human. The following applies: A:M spheroids with control siRNA or siTIMP-1 hASCs.
Data set [8] has as its system hASC-co-cultured spheroids (A:M). Briefly: Drug penetration (intrinsic fluorescence) in hASC-co-cultured tumor spheroids. Format: cell-based, human. The protocol:
as §2, §1, §3

Data set [9] shares this test system. Nature of the data set: Drug efficacy in multicellular tumor spheroids, Real Time-Glo MT Cell Viability Assay. Format: cell-based, human. The following applies: hASCs transfected with siTIMP-1, 48 h treatment. The protocol:
as §3

The text below walks through data of publication PMC9115709, “TIMP‐1‐expressing breast tumor spheroids for the evaluation of drug penetration and efficacy” (Bioengineering & Translational Medicine, 2021).

Where two headings read alike, the source gives them in different places.

For the compound `CC1(C)[C@@H](O[C@H]2O[C@H](C(=O)O)[C@@H](O)[C@H](O)[C@H]2O[C@@H]2O[C@H](C(=O)O)[C@@H](O)[C@H](O)[C@H]2O)CC[C@]2(C)[C@H]3C(=O)C=C4[C@@H]5C[C@@](C)(C(=O)O)CC[C@]5(C)CC[C@@]4(C)[C@]3(C)CC[C@@H]12` [Ammonium-glycyrrhizinate], in data set [1], the “Experiment's PV #1” value is -0.114, the “Experiment's PV #2” value is given as -0.075 and the “Experiment's PV #3” value was -0.095. Moreover, the “MDA spheroid Efficacy (EffMDA, %)” value in data set [2] was determined as 40.204%. In addition, the “A:M spheroid Efficacy (EffA:M, %)” value in data set [3] was determined as 27.510%. The IC50 – broadly, the midpoint of a concentration-inhibition curve – with MDA-MB-231 cells amounted to 72.1 µM. For the same compound, the “hASC spheroid Efficacy (EffASC, %)” value in data set [4] is reported as 33.753%.
In the case of `COc1cccc2c1C(=O)c1c(O)c3c(c(O)c1C2=O)C[C@@](O)(C(=O)CO)C[C@@H]3O[C@H]1C[C@H](N)[C@@H](O)[C@H](C)O1` [Epirubicin], in data set [1], the “Experiment's PV #1” value is -0.096, the “Experiment's PV #2” value is -0.017 and the “Experiment's PV #3” value was -0.056. Further, in [5], the “Distribution of drug inside the spheroids” value is given as “distributed throughout”. For the same compound, the “Distribution of drug inside the spheroids” value in [6] is recorded as “distributed throughout”. Besides, in data set [7], the “Necrotic cells after drug treatment” value is “Few necrotic cells”. In addition, the “MDA spheroid Efficacy (EffMDA, %)” value in data set [2] turned out to be 23.696%. Further, in [8] (10 μM, 48 h, fluorescence microscopy, vs hBMSC- or hDF-co-cultured spheroids), the “Amount of drug inside the spheroids compared to other spheroids” value is on record as “significant reduction”. Further, the “Amount of drug penetrating the spheroids, TIMP-1 silencing vs control siRNA” value in data set [8] (hASCs transfected with siTIMP-1, 48 h treatment) is given as “significantly increased”. Further, the IC50 with MDA-MB-231 cells (Homo sapiens) was 1.57 µM. Also, the “hASC spheroid Efficacy (EffASC, %)” value in data set [4] is given as 45.548%. Moreover, in [9], the “Drug efficacy, TIMP-1-silenced hASCs vs control” value is “significantly increased”.
